Measured values: patent publication US12280018B2, “Antiseptic compositions” (RHT LIMITED, priority 2020, dated 2025)

Key:
[1] = tested on: PolySeed® BOD Seed Inoculum (blend of broad spectrum bacteria); test: Durability test (bacteria spiked regularly on treated agar plate, swab viable count); format: cell-based; conditions: bacteria solution spiked every 60 minutes
Experimental: To evaluate the durability of bacteria inhibition of the exemplary compositions, durability test by regularly spiking a fixed amount of bacteria into the sample is performed and the procedures are incorporated herein by reference.
• Group A: Agar plate with 0.5 mL distilled water; • Group B: Agar plate with 0.5 mL 75% isopropyl alcohol (IPA); • Group C: Agar plate with 0.5 g of tested exemplary composition.
Bacteria strain used: PolySeed® BOD Seed Inoculum Capsules (1 caspsule dissolved into 500 mL Distilled Water) (Interlab), which contains a blend of broad spectrum bacteria designed specifically as a seed inoculum for the Biochemical Oxygen Demand (BOD 5) test as conducted in accordance to Standard Methods of the Examination of Water and Wastewater. PolySeed® is an EPA approved BOD 5 seed inoculum that has been used to seed both municipal and industrial wastes for almost 20 years.
Agar: Trypticase Soy Agar (TSA)
Incubation condition: 48 hours at 30±1° C.
The above three sample group agar plates are used as the sample matrices of different initial situation for spiking 0.5 ml bacteria solution for every 60 minutes, i.e.: there was an on-going process of spiking bacteria at time 0, 60, 120, 180, 240, 300 minutes;
A swab testing is carried out every 30 minutes from matrix samples of each group to test for the viable count of bacteria at the time interval.
• AM: 0.5 ml bacteria solution is added at T0-10 min; • Sample A1: To swab from AM at T0; Sample A2: To swab from AM at T1; • AM: 0.5 ml bacteria solution is added at T2-10 min; • Sample A3: To swab from AM at T2; Sample A4: To swab from AM at T3; • AM: 0.5 ml bacteria solution is added at T4-10 min; and so forth. Table 2 summarized the testing schedule for durability test.

[2] = tested on: PolySeed® BOD Seed Inoculum; test: Volatility test (duration of bacteria inhibition on treated agar plate); format: cell-based
Experimental: To study the duration on ability of bacteria inhibition of an exemplary composition, a volatility test is performed.
• Group A: Agar plate with 0.5 mL distilled water; • Group B: Agar plate with 0.5 mL 75% isopropyl alcohol (IPA); • Group C: Agar plate with 0.5 g of tested exemplary composition. Bacteria strain used: PolySeed® BOD Seed Inoculum Capsules (1 capsule dissolved into 500 mL Distilled Water) (Interlab) Agar: Trypticase Soy Agar (TSA) Incubation condition: 48 hours at 30±1° C. Testing Procedure 0.5 mL bacteria solution is add into the agar plate groups A, B and C at the time interval of Tx. as defined in Table 1.3.
After T10, bacteria solution is spiked to all the agar plates except agar blank.
Swab test is carried out to test for the viable count of bacteria at the time interval Tx.

CC(C)O [75% IPA, isopropyl alcohol]
CFU/plate ([1]; T0 (0 min)): 8 CFU/plate
CFU/plate ([1]; T1 (30 min)): 28 CFU/plate
CFU/plate ([1]; T2 (60 min)): 53 CFU/plate
CFU/plate ([1]; T3 (90 min)): 89 CFU/plate
CFU/plate ([1]; T4 (120 min)): 254 CFU/plate
CFU/plate ([1]; T5 (150 min)): 346 CFU/plate
CFU/plate ([1]; T6 (180 min)): Uncountable (the bacterial colonies are too numerous to be counted in the agar plate, e.g., more than 335 colonies per plate)
CFU/plate ([1]; T7 (210 min)): Uncountable (the bacterial colonies are too numerous to be counted in the agar plate, e.g., more than 335 colonies per plate)
CFU/plate ([1]; T8 (240 min)): Uncountable (the bacterial colonies are too numerous to be counted in the agar plate, e.g., more than 335 colonies per plate)
CFU/plate ([1]; T9 (270 min)): Uncountable (the bacterial colonies are too numerous to be counted in the agar plate, e.g., more than 335 colonies per plate)
CFU/plate ([1]; T10 (300 min)): Uncountable (the bacterial colonies are too numerous to be counted in the agar plate, e.g., more than 335 colonies per plate)
CFU/plate ([2]; T0 (0 min)): 54 CFU/plate
CFU/plate ([2]; T1 (30 min)): 62 CFU/plate
CFU/plate ([2]; T2 (60 min)): 50 CFU/plate
CFU/plate ([2]; T3 (90 min)): 45 CFU/plate
CFU/plate ([2]; T4 (120 min)): 49 CFU/plate
CFU/plate ([2]; T5 (150 min)): 55 CFU/plate
CFU/plate ([2]; T6 (180 min)): 43 CFU/plate
CFU/plate ([2]; T7 (210 min)): 37 CFU/plate
CFU/plate ([2]; T8 (240 min)): 44 CFU/plate
CFU/plate ([2]; T9 (270 min)): 49 CFU/plate
CFU/plate ([2]; T10 (300 min)): 0 CFU/plate
